{"source": "paper PMC6678097", "about": "“Machilin A Inhibits Tumor Growth and Macrophage M2 Polarization Through the Reduction of Lactic Acid” (Cancers, 2019)", "key": {"DLD-1": {"system": "DLD-1", "assay": "Lactate production assay", "assay_type": "cell-based, human", "conditions": "normoxic", "method": "(§1) Cellular lactate production was measured using a lactate fluorometric assay kit (Biovision, Milpitas, CA, USA) as described previously. Phenol red-free DMEM medium without FBS was added to a six-well plate containing subconfluent cells which were then incubated for 1 h at 37 °C. After incubation, the medium of each well was tested using a lactate assay kit (Biovision, Milpitas, CA, USA)."}, "HCC-95": {"system": "HCC-95", "assay": "Lactate production assay", "assay_type": "cell-based, human", "conditions": "normoxic", "method": "as §1"}, "HT29": {"system": "HT29", "assay": "Lactate production assay", "assay_type": "cell-based, human", "conditions": "for Lactate (production): normoxic", "method": "as §1"}, "Hep3B": {"system": "Hep3B", "assay": "Lactate production assay", "assay_type": "cell-based, human", "conditions": "normoxic", "method": "as §1"}, "HepG2": {"system": "HepG2", "assay": "Lactate production assay", "assay_type": "cell-based, human", "conditions": "normoxic", "method": "as §1"}, "Huh7": {"system": "Huh7", "assay": "Lactate production assay", "assay_type": "cell-based, human", "conditions": "normoxic", "method": "as §1"}, "MCF7": {"system": "MCF7", "assay": "Lactate production assay", "assay_type": "cell-based, human", "conditions": "normoxic", "method": "as §1"}, "NCI-H1793": {"system": "NCI-H1793", "assay": "Lactate production assay", "assay_type": "cell-based, human", "conditions": "normoxic", "method": "as §1"}, "R.K.O": {"system": "R.K.O", "assay": "Lactate production assay", "assay_type": "cell-based, human", "conditions": "normoxic", "method": "as §1"}, "WiDr": {"system": "WiDr", "assay": "Lactate production assay", "assay_type": "cell-based, human", "conditions": "normoxic", "method": "as §1"}, "CT26 tumors": {"system": "CT26 tumors", "assay": "Tumor allograft model, CT26 cells", "assay_type": "in vivo, BALB/c mice", "conditions": "1, 10, or 50 µg/g body weight intraperitoneally daily", "method": "LLC and CT26 cells were suspended separately in PBS (5 × 10^5 cells/100 µL PBS) and inoculated in subcutaneously on the back of 7-week-old C57BL/6 mice and BALB/c mice respectively (Orient Bio Inc., Seongnam, Korea; n = 7). One day after the inoculation with tumor cells, mice of the control group (n = 7) were intraperitoneally administrated 100 µL of PBS per day for 18 days. Each of the MA-treated mice were intraperitoneally administrated 0.02, 0.2, or 1 mg MA, respectively, in 100 µL PBS per 20 g body weight, each day for 18 days. All mice were euthanized 19 days after inoculation with the tumor cells, and the tumors were excised and weighed. Length (l) and width (w) of each tumor were measured using a caliper, and the respective volume (V) was calculated according to the formula V = [(l × w^2)/2]. Tumors were immediately removed from euthanized mice and prepared for histological examinations. To test liver and kidney toxicity of MA, at the end of the in vivo allograft experiment blood was collected from each mouse and serum was separated. Biochemical analyses of aspartate aminotransferase (AST), alanine aminotransferase (ALT), creatinine, and blood urea nitrogen (BUN) were performed using a commercial service (Green Cross Co., Yongin, Korea). […]"}, "HUVECs": {"system": "HUVECs", "assay": "Growth (MTT) and tube formation of endothelial cells, direct treatment", "assay_type": "cell-based, human", "conditions": "24 h", "method": "Figure S10. The viabilities of HUVECs and RAW264.7 cells on MA. (A) HUVECs were treated with indicated concentration of machilin A for 24 h. The viabilities of cells were evaluated by MTT assay.\n(B ) HUVECs seeded to the Matrigel-coated wells treated with machilin A for 24 h. ( C) Raw 264.7 macrophage cells were treated with indicated concentration of machilin A for 24 h. The viabilities of cells were evaluated by MTT assay.\n(1 picture or pasted object on this page, not shown here)"}, "[1]": {"system": "RAW264.7 macrophage cells", "assay": "M2 marker expression in macrophages treated with conditioned medium of MA-treated cancer cells", "assay_type": "cell-based", "conditions": "medium harvested from MA-treated (30 µM) cancer cells in hypoxic condition", "method": "Total RNA of the cells was isolated using a GeneJET RNA Purification Kit (Thermo Fisher Scientific, Waltham, MA, USA). One microgram of RNA was reverse-transcribed using a RevertAid reverse transcriptase (Thermo Fisher Scientific, Waltham, MA, USA), and single-stranded cDNA was PCR-amplified using AccPower® PCR PreMix (Bioneer, Daejeon, Korea). The qRT-PCR was performed using the QuantiNova™ SYBR®Green PCR Kit (Qiagen, GmbH, Hilden, Germany) and a Qiagen Rotor-Gene® Q Real-Time PCR Detection System according to the manufacturer’s instructions. PCR products were separated using electrophoresis on 1.5% agarose gel containing ethidium bromide in 1 × Tris-acetate buffer and were visualized under UV light.\nTo investigate the formation of a capillary-like network of human umbilical vein endothelial cells (HUVECs) through the activation of tumor associated macrophages (TAMs) by lactate secreted by cancer cells, a tube formation assay was performed according to a previous study, with several modifications. For the preparation of conditioned media, HT29 colon cancer cells (3.5 × 10^5 cells) suspended in 2 mL of DMEM were seeded on 6-well plates, with or without addition of 30 µM MA, and incubated under normoxic or hypoxic conditions. […]"}}, "data": [{"molecule": "C[C@H](Cc1ccc2c(c1)OCO2)[C@@H](C)Cc1ccc2c(c1)OCO2", "note": "[MA, bis(3,4-methylenedioxy)-8,8’-lignan]", "values": [{"measurement": "Lactate (production)", "setting": "DLD-1; MA 10 µM", "value": "3680 ± 90", "unit": "µM"}, {"measurement": "Lactate (production)", "setting": "DLD-1; MA 50 µM", "value": "2940 ± 170", "unit": "µM"}, {"measurement": "Lactate (production)", "setting": "HCC-95; MA 10 µM", "value": "2250 ± 160", "unit": "µM"}, {"measurement": "Lactate (production)", "setting": "HCC-95; MA 50 µM", "value": "1760 ± 100", "unit": "µM"}, {"measurement": "Lactate (production)", "setting": "HT29; MA 10 µM", "value": "3420 ± 370", "unit": "µM"}, {"measurement": "Lactate (production)", "setting": "HT29; MA 50 µM", "value": "2730 ± 40", "unit": "µM"}, {"measurement": "increase of lactate production in hypoxic condition", "setting": "HT29; machilin A 30 μM, hypoxia", "value": "significantly reduced"}, {"measurement": "Lactate (production)", "setting": "Hep3B; MA 10 µM", "value": "1120 ± 40", "unit": "µM"}, {"measurement": "Lactate (production)", "setting": "Hep3B; MA 50 µM", "value": "730 ± 10", "unit": "µM"}, {"measurement": "Lactate (production)", "setting": "HepG2; MA 10 µM", "value": "510 ± 60", "unit": "µM"}, {"measurement": "Lactate (production)", "setting": "HepG2; MA 50 µM", "value": "470 ± 70", "unit": "µM"}, {"measurement": "Lactate (production)", "setting": "Huh7; MA 10 µM", "value": "1140 ± 320", "unit": "µM"}, {"measurement": "Lactate (production)", "setting": "Huh7; MA 50 µM", "value": "670 ± 150", "unit": "µM"}, {"measurement": "Lactate (production)", "setting": "MCF7; MA 10 µM", "value": "1070 ± 150", "unit": "µM"}, {"measurement": "Lactate (production)", "setting": "MCF7; MA 50 µM", "value": "770 ± 190", "unit": "µM"}, {"measurement": "Lactate (production)", "setting": "NCI-H1793; MA 10 µM", "value": "2360 ± 260", "unit": "µM"}, {"measurement": "Lactate (production)", "setting": "NCI-H1793; MA 50 µM", "value": "2040 ± 380", "unit": "µM"}, {"measurement": "Lactate (production)", "setting": "R.K.O; MA 10 µM", "value": "2760 ± 60", "unit": "µM"}, {"measurement": "Lactate (production)", "setting": "R.K.O; MA 50 µM", "value": "2480 ± 60", "unit": "µM"}, {"measurement": "Lactate (production)", "setting": "WiDr; MA 10 µM", "value": "3220 ± 50", "unit": "µM"}, {"measurement": "Lactate (production)", "setting": "WiDr; MA 50 µM", "value": "2700 ± 60", "unit": "µM"}, {"measurement": "volume, weight, and size of tumors", "setting": "CT26 tumors", "value": "significantly reduced"}, {"measurement": "growth and tube formation of endothelial cells", "setting": "HUVECs", "value": "did not directly inhibit"}, {"measurement": "Arg1, CD206, YM1, and VEGF expression in macrophages", "setting": "[1]", "value": "reduction of Arg1, CD206, YM1, and VEGF expression"}]}]}
